Results taken from PubChem BioAssay (NCI).
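48-hour exposure; five concentrations; linearly interpolated endpoints. At the GI50, growth is halved. At the TGI there is no net growth.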

Key:
Experiment in all cases: growth of human tumour cells (NCI), 48 h
[1] = system: LOX IMVI melanoma
[2] = system: MDA-MB-231 breast
[3] = system: NCI-H460 lung
[4] = system: NCI/ADR-RES ovarian
[5] = system: RPMI-8226 leukemia
[6] = system: RXF 393 renal
[7] = system: SK-MEL-28 melanoma
[8] = system: UACC-62 melanoma
[9] = system: SNB-75 CNS
[10] = system: OVCAR-8 ovarian

| SMILES | TGI [1] | TGI [2] | TGI [3] | TGI [4] | TGI [5] | TGI [6] | TGI [7] | TGI [8] | TGI [9] | TGI [10] | GI50 [2] | GI50 [3] | GI50 [10] | GI50 [5] | GI50 [6] | GI50 [7] | GI50 [9] |
| --- | --- | --- | --- | --- | --- | --- | --- | --- | --- | --- | --- | --- | --- | --- | --- | --- | --- |
| COc1ccc(-c2ccc(C(=O)C=P(c3ccccc3)(c3ccccc3)c3ccccc3)cc2)cc1 | 31.5 µM | 30.7 µM | 20.5 µM | 37.5 µM | 5.01 µM | 27 µM | 32 µM | 28.9 µM | – | – | – | – | – | – | – | – | – |
| O=[N+]([O-])c1ccc(-n2nc3ccc4nonc4c3n2)cc1 | > 100 µM | > 100 µM | > 100 µM | > 100 µM | > 100 µM | – | > 100 µM | > 100 µM | 30.8 µM | – | – | – | – | – | – | – | – |
| C=C(NC(=O)C(=C)NC(=O)c1ccc2c(n1)-c1coc(n1)C(=C)NC(=O)C(=C)NC(=O)c1nc(oc1C)C(=C)NC(=O)C(C(C)(C)O)NC(=O)C(=C)NC(=O)c1coc(n1)/C(=C/C)NC(=O)[C@H]([C@@H](C)O)NC(=O)c1csc-2n1)C(N)=O (some centres not stated) | > 87.5 µM | > 87.5 µM | > 87.5 µM | > 87.5 µM | > 87.5 µM | > 87.5 µM | > 87.5 µM | – | > 87.5 µM | > 87.5 µM | – | – | – | – | – | – | – |
| C=CCC(O[Si](C)(C)C(C)(C)C)c1cc(O[Si](C)(C)C(C)(C)C)ccc1OC (configuration not stated) | > 100 µM | – | > 100 µM | > 100 µM | > 100 µM | > 100 µM | > 100 µM | > 100 µM | > 100 µM | > 100 µM | – | – | – | – | – | – | – |
| O=P1(N(CCCl)CCCl)Oc2ccc(Cl)cc2C(C(Cl)(Cl)Cl)c2cc(Cl)ccc2O1 (configuration not stated) | 28.7 µM | 44.4 µM | 29.8 µM | > 100 µM | > 100 µM | 29.3 µM | > 100 µM | 26.7 µM | 37.9 µM | > 100 µM | – | – | – | – | – | – | – |
| COC1/C=C/C(C)C(O)CC(O)/C=C/C(C)C(C(C)C(OC)C(C)CCC(=O)C(C)C(C/C=C/N(C)C=O)OC)OC(=O)/C=C/C=C(\C)CC(OC)CC2=CC(=O)O[C@@H](C(C)C(OC)C1)[C@H]2O (some centres not stated) | – | – | 0.162 µM | – | 0.124 µM | 0.0112 µM | 0.155 µM | 0.019 µM | 0.00586 µM | 0.475 µM | – | – | – | – | – | – | – |
| O=c1[nH]c(=O)n(COC(CO)CO)cc1-c1ccccc1 | > 100 µM | > 100 µM | > 100 µM | > 100 µM | > 100 µM | – | > 100 µM | > 100 µM | > 100 µM | > 100 µM | – | – | – | – | – | – | – |
| COC(=O)[C@]1(c2cc3ccccc3n2S(=O)(=O)c2ccccc2)CC2CN(C(=O)OCc3ccccc3)C1C1OC(C)(C)OC21 (some centres not stated) | > 100 µM | > 100 µM | > 100 µM | > 100 µM | > 100 µM | > 100 µM | > 100 µM | > 100 µM | > 100 µM | > 100 µM | – | – | – | – | – | – | – |
| CCC1(O)CC(CCN(Cc2ccccc2)C(=O)OCc2ccccc2)C(OCc2ccccc2)C1O (configuration not stated) | 86.7 µM | 87.3 µM | 31.3 µM | 25.7 µM | – | 41.9 µM | 36.4 µM | 28.3 µM | 25.7 µM | 30.1 µM | – | – | – | – | – | – | – |
| Nc1[nH]c(=O)nc2c1ncn2C1OC(CO)C(O)C1O (configuration not stated) | > 100 µM | > 100 µM | > 100 µM | 51.1 µM | > 100 µM | > 100 µM | > 100 µM | > 100 µM | 20.6 µM | 74.4 µM | – | – | – | – | – | – | – |
| CCCCCC[C@H]([C@H](C)O)n1cnc2c(N)ncnc21 | > 100 µM | > 100 µM | > 100 µM | > 100 µM | > 100 µM | > 100 µM | > 100 µM | > 100 µM | > 100 µM | > 100 µM | – | – | – | – | – | – | – |
| Cc1ccccc1NC(=O)O/N=C(\Cl)C(C)C | 3.11 µM | 32.7 µM | 34.7 µM | 33.7 µM | 4.03 µM | 25.1 µM | 6.25 µM | 28.3 µM | 32.1 µM | 33.8 µM | – | – | – | – | – | – | – |
| CC1=NN(C(=O)CC(=O)Nc2cccc(C)c2)C(=O)C1N=Nc1ccc(S(=O)(=O)CCOS(=O)(=O)O)cc1 (configuration not stated) | 5.47 µM | 14.8 µM | 11.8 µM | – | > 100 µM | 22 µM | 19.7 µM | 9.34 µM | 19.7 µM | > 22.4 µM | – | – | – | – | – | – | – |
| CC(O)c1nc(C#N)c(N)o1 (configuration not stated) | > 100 µM | > 100 µM | – | > 100 µM | > 100 µM | – | > 100 µM | > 100 µM | > 100 µM | > 100 µM | – | – | – | – | – | – | – |
| CC1=C(CO)C(=O)OC(C(C)C2CCC3C4CC5OC56C(O)C(N5CC5)=CC(=O)C6(C)C4CCC23C)C1 (configuration not stated) | 31.1 µM | – | 25 µM | – | 17.8 µM | 26.9 µM | 31.1 µM | 23.8 µM | 18.6 µM | 5.78 µM | – | – | – | – | – | – | – |
| N#CCCC(C=O)(CCC#N)CCC#N | > 100 µM | > 100 µM | > 100 µM | > 100 µM | – | > 100 µM | > 100 µM | > 100 µM | > 100 µM | > 100 µM | – | – | – | – | – | – | – |
| C[s+]1c2ccccc2c2ccccc21 | > 100 µM | – | > 100 µM | – | > 100 µM | > 100 µM | > 100 µM | > 100 µM | – | > 100 µM | – | – | – | – | – | – | – |
| O=C1c2cc3c(cc2-c2c1c1cc(F)c(F)cc1c(=O)n2CCCn1ccnc1)OCO3 | – | > 100 µM | 0.199 µM | – | 0.673 µM | 0.169 µM | > 100 µM | – | 0.11 µM | > 100 µM | 0.311 µM | < 0.01 µM | 0.022 µM | 0.0253 µM | 0.036 µM | 0.228 µM | < 0.01 µM |
| CCOc1ccc2nc(NC(=O)C(=O)C(C(=O)c3ccccc3F)C3OC(=O)c4ccccc43)sc2c1 (configuration not stated) | – | – | 39.5 µM | – | 90 µM | 38.3 µM | 46.5 µM | 27.7 µM | 46.4 µM | 32.8 µM | – | – | – | – | – | – | – |
| O=C(CNc1ccccc1C(=O)O)Nn1cnc2ccc(S(=O)(=O)Nc3ccccc3C(=O)O)cc2c1=O | > 100 µM | > 100 µM | > 100 µM | > 100 µM | > 100 µM | – | > 100 µM | > 100 µM | > 100 µM | > 100 µM | – | – | – | – | – | – | – |
| C/C(=C1\N=C(c2ccccc2)OC1=O)c1ccccc1 | > 100 µM | – | > 100 µM | – | > 100 µM | – | > 100 µM | > 100 µM | > 100 µM | > 100 µM | – | – | – | – | – | – | – |
